Data taken from ChEMBL document CHEMBL1201862, “PubChem BioAssay data set” (2004).
Calls of active or inactive are those of the source.

What was measured:
[1] = biological target: Phosphomannomutase 2 (Homo sapiens, UniProt O15305); assay: Counter screen SAR assay for PMM2 inhibitors via a fluorescence intensity assay. [Related pubchem assays (depositor defined):AID1545, AID1574]
[2] = biological target: T1, Mannose-6-phosphate isomerase (Homo sapiens, UniProt P34949); assay: PMI enzyme inhibitors, confirmation, biochemical, fluorescence intensity (AID 1535)
T1 sequence (P34949 whole entry): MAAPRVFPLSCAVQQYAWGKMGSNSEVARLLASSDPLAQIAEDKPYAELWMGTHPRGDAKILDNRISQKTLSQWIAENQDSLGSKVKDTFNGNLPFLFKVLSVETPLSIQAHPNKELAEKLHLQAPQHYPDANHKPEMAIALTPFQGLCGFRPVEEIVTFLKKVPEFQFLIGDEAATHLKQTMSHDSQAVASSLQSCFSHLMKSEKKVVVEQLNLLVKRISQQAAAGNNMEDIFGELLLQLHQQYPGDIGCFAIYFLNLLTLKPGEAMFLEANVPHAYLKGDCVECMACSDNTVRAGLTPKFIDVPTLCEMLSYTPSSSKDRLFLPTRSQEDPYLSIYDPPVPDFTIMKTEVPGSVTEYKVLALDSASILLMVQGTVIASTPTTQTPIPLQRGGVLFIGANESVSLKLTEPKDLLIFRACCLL

[3] = biological target: Protein-tyrosine kinase 2-beta (Homo sapiens, UniProt Q14289);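 note: potency of inhibitors of PYK2 kinase phosphorylation of poly-GT substrate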
[4] = HEp-2 cell cytotoxicity, dose response, cytotoxicity control for RSV inhibitor project, HTS (AID 2410); type: functional; conditions: human respiratory syncytial virus
[5] = system: Streptococcus sp. 'group A'; assay: growth inhibition of control SK(-) GAS strain, dose response, counter-screen for streptokinase expression inhibitor project, luminescence, kanamycin, BacTiterGlo, confirmation (AID 1900); type: functional, organism-based
[6] = system: Streptococcus; assay: Group A Streptococcus viability loss, dose response, counter-screen for streptokinase expression inhibitor project, luminescence, BacTiterGlo (AID 1915); type: functional, organism-based;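 note: potency for reduction of bacterial viability or growth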
[7] = biological target: Peroxisome proliferator-activated receptor gamma/Nuclear receptor coactivator 3 (Homo sapiens, UniProt P37231); assay: (§1) TR-FRET dose response biochemical High Throughput Screening assay for agonists of the steroid receptor coactivator 3 (SRC-3) recruitment by the peroxisome proliferator-activated receptor gamma (PPAR gamma): non-selective agonists. [Related pubchem assays: 1301 (Confirmation screen.), 1048 (Primary screen.)]; type: functional
[8] = biological target: Peroxisome proliferator-activated receptor gamma/Nuclear receptor coactivator 1 (Homo sapiens, UniProt P37231); assay: as §1, with “1 (SRC-1)” for “3 (SRC-3)”, “assays (depositor defined):AID1300, AID1808, AID504735, AID631]” for “assays: 1301 (Confirmation screen.), 1048 (Primary screen.)]”; type: protein assay
[9] = biological target: Peroxisome proliferator-activated receptor gamma/Nuclear receptor coactivator 2 (Homo sapiens, UniProt P37231); assay: TR-FRET dose response biochemical High Throughput Screening assay for agonists of the steroid receptor coactivator 2 (SRC-2) recruitment by the peroxisome proliferator-activated receptor gamma (PPAR gamma): non-selective agonists. [Related pubchem assays: 1297, 1032 ]; type: functional
[10] = biological target: T2, Streptokinase A (Streptococcus pyogenes serotype M1, UniProt P10520); assay: S. pyogenes streptokinase expression inhibitors, potency, dose response, plasminogen activation absorbance, OD405 (AID 1914); type: functional, Streptococcus pyogenes M1 GAS;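 note: secreted streptokinase activity via plasminogen activation per viability signal from cell pellet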
T2 sequence (P10520 whole entry): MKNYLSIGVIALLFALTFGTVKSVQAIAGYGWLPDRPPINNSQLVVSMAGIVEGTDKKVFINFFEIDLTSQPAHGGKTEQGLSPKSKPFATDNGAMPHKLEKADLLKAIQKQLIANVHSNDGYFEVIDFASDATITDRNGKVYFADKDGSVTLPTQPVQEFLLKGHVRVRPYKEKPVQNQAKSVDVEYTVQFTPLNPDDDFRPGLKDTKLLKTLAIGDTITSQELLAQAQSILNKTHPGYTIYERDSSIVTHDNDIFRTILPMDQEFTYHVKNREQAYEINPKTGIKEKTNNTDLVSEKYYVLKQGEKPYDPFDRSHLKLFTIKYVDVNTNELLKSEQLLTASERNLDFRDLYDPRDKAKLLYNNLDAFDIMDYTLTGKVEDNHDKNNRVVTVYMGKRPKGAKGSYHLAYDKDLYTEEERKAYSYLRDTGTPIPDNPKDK

[11] = system: Streptococcus; assay: Luminescence Microorganism-Based Dose Response Follow up to Identify Compounds Cytotoxic to Streptococcus. [Related pubchem assays: 1677 (Project Summary), 1915, 1914, 1902 (Retest at Dose), 1900 (Counter Screen), 1662 (Primary HTS)]; type: functional, organism-based
[12] = system: HEK293; assay: NOD2 signaling inhibitors in MDP-stimulated cells, cell-based, uHTS, luminescence (AID 2001); type: functional; conditions: Homo sapiens
[13] = system: HEK293; assay: cells; type: functional, cell-based; conditions: Homo sapiens
[14] = system: HEK293; assay: NOD1 signaling inhibitors, primary screen, cell-based, luminescence, uHTS (AID 1578); type: functional; conditions: Homo sapiens
[15] = system: HEK293; assay: cells; type: functional, cell-based; conditions: Homo sapiens; remark: listed apart in the source
[16] = biological target: Ion channel NompC (Danio rerio, UniProt Q7T1G6); assay: Dose response cell-based high-throughput screening assay for agonists of the transient receptor potential channel N1 (TRPN1). [Related pubchem assays (depositor defined):AID1424, AID1448]; type: functional
[17] = biological target: T3, Mucolipin-3 (Homo sapiens, UniProt Q8TDD5); assay: Fluorescence counterscreen assay for […] agonists: dose response cell-based high-throughput screening assay to identify agonists of the transient receptor potential channel ML3 (TRPML3). [Related pubchem assays: 1424, 1448 ]; type: functional
T3 sequence (Q8TDD5 whole entry): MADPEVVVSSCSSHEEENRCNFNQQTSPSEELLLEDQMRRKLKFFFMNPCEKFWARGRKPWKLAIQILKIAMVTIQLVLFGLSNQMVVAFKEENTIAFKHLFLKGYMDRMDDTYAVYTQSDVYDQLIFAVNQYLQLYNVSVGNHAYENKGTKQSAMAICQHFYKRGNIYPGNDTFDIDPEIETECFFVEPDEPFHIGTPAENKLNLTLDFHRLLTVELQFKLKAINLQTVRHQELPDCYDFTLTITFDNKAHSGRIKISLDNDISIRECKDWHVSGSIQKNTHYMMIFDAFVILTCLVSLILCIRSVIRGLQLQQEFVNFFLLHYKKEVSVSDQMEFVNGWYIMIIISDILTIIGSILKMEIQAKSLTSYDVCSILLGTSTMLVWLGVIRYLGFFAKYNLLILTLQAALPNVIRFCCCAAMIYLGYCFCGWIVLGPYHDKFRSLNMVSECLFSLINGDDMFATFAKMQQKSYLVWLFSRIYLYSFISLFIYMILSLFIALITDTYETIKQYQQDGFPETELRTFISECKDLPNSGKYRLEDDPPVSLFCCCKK

[18] = biological target: T4, Protein RecA (Mycobacterium tuberculosis, UniProt P9WHJ3); assay: Fluorescence Cell-Free Homogeneous Dose Retest to Identify Inhibitors of RecA-Intein Splicing Activity. [Related pubchem assays (depositor defined):AID2097, AID2223, AID489010, AID492950]; type: functional
T4 sequence (P9WHJ3 whole entry): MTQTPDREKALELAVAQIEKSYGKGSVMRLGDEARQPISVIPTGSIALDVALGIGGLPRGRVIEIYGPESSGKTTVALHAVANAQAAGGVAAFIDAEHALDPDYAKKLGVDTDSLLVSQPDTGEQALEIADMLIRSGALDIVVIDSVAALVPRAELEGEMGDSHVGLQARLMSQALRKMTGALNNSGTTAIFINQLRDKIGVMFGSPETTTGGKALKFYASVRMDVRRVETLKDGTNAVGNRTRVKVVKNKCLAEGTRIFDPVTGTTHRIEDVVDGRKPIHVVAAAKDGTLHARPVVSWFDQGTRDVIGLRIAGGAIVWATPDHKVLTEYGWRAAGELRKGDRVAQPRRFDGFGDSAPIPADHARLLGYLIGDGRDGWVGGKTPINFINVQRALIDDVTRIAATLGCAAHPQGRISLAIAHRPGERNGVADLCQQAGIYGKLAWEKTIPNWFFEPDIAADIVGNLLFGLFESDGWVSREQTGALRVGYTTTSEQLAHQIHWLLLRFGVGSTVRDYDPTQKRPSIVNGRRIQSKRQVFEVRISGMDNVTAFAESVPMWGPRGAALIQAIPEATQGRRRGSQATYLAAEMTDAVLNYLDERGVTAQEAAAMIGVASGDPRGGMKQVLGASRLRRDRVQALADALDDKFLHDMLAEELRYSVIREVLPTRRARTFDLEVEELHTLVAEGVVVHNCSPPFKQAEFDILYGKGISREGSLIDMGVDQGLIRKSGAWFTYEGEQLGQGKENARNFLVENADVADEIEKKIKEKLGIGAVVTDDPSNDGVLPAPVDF

[19] = biological target: T5, Replicative DNA helicase DnaB (Mycobacterium tuberculosis, UniProt P9WMR3); assay: DnaB intein splicing inhibitors, dose response, biochemical, cell-free fluorescence (AID 449749); type: functional
T5 sequence (P9WMR3 whole entry): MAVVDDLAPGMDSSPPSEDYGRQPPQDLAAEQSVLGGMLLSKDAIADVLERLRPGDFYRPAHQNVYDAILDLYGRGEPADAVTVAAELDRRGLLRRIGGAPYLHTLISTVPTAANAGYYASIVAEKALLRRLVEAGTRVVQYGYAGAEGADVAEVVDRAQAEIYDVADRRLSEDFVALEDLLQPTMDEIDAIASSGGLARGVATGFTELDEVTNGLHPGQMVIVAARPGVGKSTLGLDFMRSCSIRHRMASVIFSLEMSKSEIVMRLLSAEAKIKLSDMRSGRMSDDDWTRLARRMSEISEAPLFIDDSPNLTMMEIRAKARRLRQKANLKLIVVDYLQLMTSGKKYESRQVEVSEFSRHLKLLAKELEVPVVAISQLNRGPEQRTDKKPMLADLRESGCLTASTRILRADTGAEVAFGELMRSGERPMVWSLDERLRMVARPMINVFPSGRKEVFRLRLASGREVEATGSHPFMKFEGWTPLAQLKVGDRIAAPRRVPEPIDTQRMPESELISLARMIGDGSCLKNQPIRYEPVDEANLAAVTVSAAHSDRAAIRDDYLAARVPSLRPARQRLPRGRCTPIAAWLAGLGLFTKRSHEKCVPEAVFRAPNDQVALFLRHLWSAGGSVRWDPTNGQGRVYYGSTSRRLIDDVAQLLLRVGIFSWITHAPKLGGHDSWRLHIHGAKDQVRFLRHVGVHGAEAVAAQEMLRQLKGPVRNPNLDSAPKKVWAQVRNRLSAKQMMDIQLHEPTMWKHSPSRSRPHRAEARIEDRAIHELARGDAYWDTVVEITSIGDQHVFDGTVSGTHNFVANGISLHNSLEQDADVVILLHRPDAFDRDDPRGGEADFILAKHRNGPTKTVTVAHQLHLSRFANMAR

[20] = biological target: Troponin, cardiac muscle (Homo sapiens, UniProt P19429+P45379+P63316); assay: Fluorescence-based biochemical high throughput dose response assay for activators of the calcium sensitivity of cardiac Regulated Thin Filaments (RTF). [Related pubchem assays (depositor defined):AID493008, AID493018, AID504382, AID504383]; type: protein-complex assay
[21] = biological target: Cytochrome P450 3A4 (Homo sapiens, UniProt P08684);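 note: CYP3A4 tested as one member of a cytochrome P450 panel screen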

For `Clc1cccc(/N=c2\ssnc2Cl)c1`, the IC50 [1] was > 100 µM (inactive) and the IC50 [2] was 51.1 µM (active).
For `COc1ccc(-c2nc(-c3cccs3)c(-c3cccs3)[nH]2)cc1OC`, the IC50 [3] was > 69.5 µM (not active), the CC50 [4] was 23.4 µM (active) and the EC50 [5] was 2.57 µM (active). For the same molecule, the EC50 [6] was > 150 µM (not active), the EC50 [7] was > 79.4 µM (not active) and the EC50 [8] was 13.9 µM (inactive). The EC50 [9] was 15.6 µM (not active), the EC50 [10] was 1.41 µM (active) and the EC50 [11] was 5.41 µM (active).
In the case of `COc1cc(S(=O)(=O)NCc2ccncc2)ccc1Br`, the IC50 [12] is reported as > 20 µM (inactive), the IC50 [13] is reported as 16.5 µM (active) and the EC50 [14] is reported as 3.02 µM (active). The IC50 [15] was > 20 µM (inactive).
In the case of `Cc1cc(O)nc(SCC(=O)Nc2ccccc2C)n1`, the EC50 [16] is reported as > 29.9 µM (inactive) and the EC50 [17] is reported as > 29.9 µM (not active).
In the case of `Cc1cccc(/C=N/NC(=O)C(C)Nc2cccc3ccccc23)n1` (stereo unspecified), the EC50 [18] is reported as 47.1 µM (active), the AC50 [19] is reported as 3.78 µM (active) and the EC50 [20] is reported as 10.5 µM (inactive).
With `CCc1nnc(NC(=O)CCC(=O)N2CCN(c3ccccn3)CC2)s1` the AC50 [21] was “inconclusive”.
